{"source": "patent US5432165A", "about": "“Methods for the treatment of infection caused by Hepatitis B virus (HBV)” (priority 1992, dated 1995)", "key": {"[1]": {"experiment": "Oral FIAU in immune-competent patients with chronic hepatitis B: adverse experiences", "format": "in vivo, human", "experimental": "Consecutively qualifying patients will be used for each dose group and patients will not be assigned to dose based on either disease severity or expected tolerance. Tolerance will be determined with antiemetic therapy given concomitantly as necessary should a patient experience sustained nausea or two or more episodes of vomiting. Compazine, 10 mg p.o. Q6H or 25 mg p.r. Q12H will be used.\nThe side effects that will be monitored will include gastrointestinal irritation, bone marrow suppression, neurologic, and muscular toxicity."}, "hepatitis B virus": {"tested_on": "hepatitis B virus", "experiment": "Oral FIAU in immune-competent patients with chronic hepatitis B: HBV DNA and HBV DNA polymerase", "format": "in vivo, human", "details": "for Number HBeAg-negative at latest follow-up: 6 patients with 1 month follow-up", "experimental": "To assess the antiviral activity of FIAU against hepatitis B virus, up to 24 patients with chronic hepatitis B will be treated with oral FIAU in doses of 0.05, 0.10, 0.25 or 0.50 mg/kg-day in three divided doses daily for four weeks. Six patients, of which only three can be previous interferon failures, will be initially dosed at 0.10 mg/kg-day. Depending on tolerance and efficacy, the next six patients will be entered at 0.05 or 0.25 mg/kg-day.\nThis study is an open and uncontrolled evaluation of oral FIAU in the treatment of chronic hepatitis B. Up to four dose cohorts of six patients each will be sequentially studied starting at 0.10 mg/kg-day. Patients will take the medication three times per day for four weeks. Depending on efficacy and tolerance, the next dose cohort will be either 0.05 or 0.25 mg/kg-day.\nPatients who meet the eligibility criteria will start on therapy, generally as outpatients one to two weeks after the in-hospital evaluation. Up to four doses will be sequentially evaluated. The initial six patients will receive 0.10 mg/kg-day for four weeks.\nIf tolerance is adequate at 0.10 mg/kg-day, six patients will receive 0.25 mg/kg-day for four weeks. The final six patients will receive 0.50 mg/kg-day for four weeks if needed for better efficacy and if tolerance has been adequate at the lower doses.\nThe FIAU will be administered by mouth in three equally divided doses daily. FIAU is provided as a 1 mg/ml syrup. Patients will be instructed on how to measure and self-administer the FIAU solution using oral dosing syringes. Dosing compliance will be monitored by measuring the residual FIAU solution returned at the weekly outpatient visit.\nActivity of FIAU against hepatitis B virus will be assessed by monitoring levels of HBV DNA. An inhibition of HBV DNA activity of at least about 50% by the fourth week of treatment will be considered significant antiviral activity. The dose levels of FIAU will be compared based upon the degree of inhibition of serum levels of HBV DNA."}, "[2]": {"details": "typical; read-out: cellular toxicity concentration (ID50); cited from earlier work"}, "[3]": {"experiment": "Adverse Experience Summary (Table II), HIV-infected patients", "format": "in vivo, human", "details": "0.1 mg/kg-day", "excerpt": "A summary of the adverse effects experienced by some of the patients involved in the various dosage studies conducted are presented in Table II, attached hereto. Where no entry is given, no adverse experience was observed."}, "[4]": {"details": "0.1 mpk, Day 1 (initial level), individual patients 1A-6A"}, "[5]": {"details": "0.1 mpk, Day 3, individual patients 1A-6A"}, "[6]": {"details": "0.1 mpk, Day 8, individual patients 1A-6A"}, "[7]": {"details": "0.1 mpk, Week 2, individual patients 1A-6A"}, "[8]": {"details": "0.1 mpk, Week 3, individual patients 1A-6A"}, "[9]": {"details": "0.1 mpk, Week 4, individual patients 1A-6A"}, "[10]": {"details": "0.1 mpk, Week 5 (after 4-week treatment), individual patients 1A-6A"}, "[11]": {"details": "0.25 mpk, Day 1 (initial level), individual patients 1B-6B"}, "[12]": {"details": "0.25 mpk, Day 3, individual patients 1B-6B"}, "[13]": {"details": "0.25 mpk, Day 8, individual patients 1B-6B"}, "[14]": {"details": "0.25 mpk, Week 2, individual patients 1B-6B"}}, "note": "Where “and” joins values, the source holds several entries; their conditions need not be identical. Equal entries are not always repeated. Entries after “also recorded” stand apart in the source; their conditions may differ.", "data": [{"smiles": "O=c1[nH]c(=O)n([C@@H]2O[C@H](CO)[C@@H](O)[C@@H]2F)cc1I", "note": "[FIAU, 1-(2'-deoxy-2'-fluoro-β-D-arabinofuranosyl)-5-iodouracil]", "values": [{"measurement": "days on which mild fatigue was experienced", "setting": "[1]; 0.05 mpk, patient 1C", "result": "Day 8"}, {"measurement": "days on which mild fatigue was experienced", "setting": "[1]; 0.1 mpk, individual patients (footnotes a-d: 1A, 2A, 3A, 6A)", "result": "Days 3, 8, 14, 21, 28, and Week 5; also recorded: Days 7, 14, and 18"}, {"measurement": "days on which mild nausea was experienced", "setting": "[1]; 0.1 mpk, patient 6A", "result": "Days 3, 7, 14, and 21"}, {"measurement": "days on which mild fatigue was experienced", "setting": "[1]; 0.25 mpk, individual patients (footnotes e, g: 4B, 6B)", "result": "Days 14, 21, 28, Week 5, and Month 2"}, {"measurement": "days on which mild nausea was experienced", "setting": "[1]; 0.25 mpk, patient 5B", "result": "Day 3"}, {"measurement": "mean reduction of HBV DNA serum level from initial levels at Week 4", "setting": "hepatitis B virus; 0.05 mpk", "result": 30, "unit": "%"}, {"measurement": "Number HBeAg-negative at latest follow-up", "setting": "hepatitis B virus; 0.05 mpk", "result": 0}, {"measurement": "HBV DNA Polymerase (cpm)", "setting": "hepatitis B virus; 0.05 mpk, Day 1 (initial level), individual patients 1C, 2C", "result": "1,318 cpm and 3,365 cpm"}, {"measurement": "HBV DNA Polymerase (cpm)", "setting": "hepatitis B virus; 0.05 mpk, Day 3, individual patients 1C, 2C", "result": "748 cpm and 1,509 cpm"}, {"measurement": "HBV DNA Polymerase (cpm)", "setting": "hepatitis B virus; 0.05 mpk, Day 8, individual patients 1C, 2C", "result": "348 cpm and 908 cpm"}, {"measurement": "Mean % change of HBV DNA at Week 4 of FIAU", "setting": "hepatitis B virus; 0.05 mpk, n = 4", "result": -31, "unit": "%"}, {"measurement": "mean reduction of HBV DNA serum level from initial levels at Week 4", "setting": "hepatitis B virus; 0.1 mpk", "result": 88, "unit": "%"}, {"measurement": "Number HBeAg-negative at latest follow-up", "setting": "hepatitis B virus; 0.1 mpk", "result": 0}, {"measurement": "HBV DNA", "setting": "hepatitis B virus; [4]", "result": "68.1 pg/mL and 306.2 pg/mL and 307.7 pg/mL and 18.1 pg/mL and 71.3 pg/mL and 172.6 pg/mL"}, {"measurement": "HBV DNA Polymerase (cpm)", "setting": "hepatitis B virus; [4]", "result": "1208 cpm and 3340 cpm and 3,000 cpm and 1,500 cpm and 1,174 cpm"}, {"measurement": "HBV DNA", "setting": "hepatitis B virus; [5]", "result": "23.2 pg/mL and 110.6 pg/mL and 208.7 pg/mL and 12.3 pg/mL and 27.8 pg/mL and 75.6 pg/mL"}, {"measurement": "HBV DNA Polymerase (cpm)", "setting": "hepatitis B virus; [5]", "result": "348 cpm and 721 cpm and 1,550 cpm and 440 cpm and 251 cpm and 610 cpm"}, {"measurement": "HBV DNA", "setting": "hepatitis B virus; [6]", "result": "16.8 pg/mL and 100.1 pg/mL and 178.8 pg/mL and 8.8 pg/mL and 9.7 pg/mL and 27.6 pg/mL"}, {"measurement": "HBV DNA Polymerase (cpm)", "setting": "hepatitis B virus; [6]", "result": "119 cpm and 550 cpm and 843 cpm and 164 cpm and 145 cpm and 169 cpm"}, {"measurement": "HBV DNA", "setting": "hepatitis B virus; 0.1 mpk, Month 1 (follow-up), individual patients 1A-6A", "result": "4.3 pg/mL and 4.8 pg/mL and 34.2 pg/mL and 4.4 pg/mL and 18.6 pg/mL and 138.5 pg/mL"}, {"measurement": "HBV DNA", "setting": "hepatitis B virus; 0.1 mpk, Month 2 (follow-up), individual patients 1A-6A", "result": "13.8 pg/mL and 11.7 pg/mL and 58.4 pg/mL and 5.9 pg/mL and 26.1 pg/mL and 172.9 pg/mL"}, {"measurement": "HBV DNA", "setting": "hepatitis B virus; [7]", "result": "9.3 pg/mL and 94.5 pg/mL and 223.2 pg/mL and 7.3 pg/mL and 17.9 pg/mL and 25.2 pg/mL"}, {"measurement": "HBV DNA Polymerase (cpm)", "setting": "hepatitis B virus; [7]", "result": "90 cpm and 507 cpm and 977 cpm and 118 cpm and 136 cpm and 142 cpm"}, {"measurement": "HBV DNA", "setting": "hepatitis B virus; [8]", "result": "6.4 pg/mL and 42.2 pg/mL and 122.1 pg/mL and 3.2 pg/mL and 9.0 pg/mL and 22.8 pg/mL"}, {"measurement": "HBV DNA Polymerase (cpm)", "setting": "hepatitis B virus; [8]", "result": "144 cpm and 360 cpm and 303 cpm and 69 cpm and 86 cpm and 148 cpm"}, {"measurement": "HBV DNA", "setting": "hepatitis B virus; [9]", "result": "0.0 pg/mL and 31.4 pg/mL and 78.3 pg/mL and 2.5 pg/mL and 7.4 pg/mL and 21.8 pg/mL"}, {"measurement": "HBV DNA Polymerase (cpm)", "setting": "hepatitis B virus; [9]", "result": "93 cpm and 205 cpm and 310 cpm and 74 cpm and 99 cpm and 165 cpm"}, {"measurement": "HBV DNA", "setting": "hepatitis B virus; [10]", "result": "4.1 pg/mL and 42.4 pg/mL and 76.1 pg/mL and 8.7 pg/mL and 21.9 pg/mL and 67.9 pg/mL"}, {"measurement": "HBV DNA Polymerase (cpm)", "setting": "hepatitis B virus; [10]", "result": "84 cpm and 368 cpm and 657 cpm and 169 cpm and 127 cpm and 324 cpm"}, {"measurement": "Mean % change of HBV DNA at Week 4 of FIAU", "setting": "hepatitis B virus; 0.1 mpk, n = 6", "result": -88, "unit": "%"}, {"measurement": "mean reduction of HBV DNA serum level from initial levels at Week 4", "setting": "hepatitis B virus; 0.25 mpk", "result": 84, "unit": "%"}, {"measurement": "patients who \"sero-converted\" (failed to exhibit hepatitis B surface antigen)", "setting": "hepatitis B virus; 0.25 mpk", "result": "2 of 6"}, {"measurement": "Number HBeAg-negative at latest follow-up", "setting": "hepatitis B virus; 0.25 mpk", "result": 2}, {"measurement": "HBV DNA", "setting": "hepatitis B virus; [11]", "result": "975.8 pg/mL and 63.9 pg/mL and 799.1 pg/mL and 196.3 pg/mL and 110.3 pg/mL and 141.1 pg/mL"}, {"measurement": "HBV DNA Polymerase (cpm)", "setting": "hepatitis B virus; [11]", "result": "43,752 cpm and 835 cpm and 10,833 cpm and 2,752 cpm and 2,454 cpm and 7,422 cpm"}, {"measurement": "HBV DNA", "setting": "hepatitis B virus; [12]", "result": "742.7 pg/mL and 23 pg/mL and 472.3 pg/mL and 103.5 pg/mL and 40.4 pg/mL and 79.9 pg/mL"}, {"measurement": "HBV DNA Polymerase (cpm)", "setting": "hepatitis B virus; [12]", "result": "7,841 cpm and 182 cpm and 2,115 cpm and 1,302 cpm and 506 cpm and 1,482 cpm"}, {"measurement": "HBV DNA", "setting": "hepatitis B virus; [13]", "result": "718.9 pg/mL and 17.5 pg/mL and 204.2 pg/mL and 47.1 pg/mL and 15.9 pg/mL and 60.7 pg/mL"}, {"measurement": "HBV DNA Polymerase (cpm)", "setting": "hepatitis B virus; [13]", "result": "5,129 cpm and 81 cpm and 1,481 cpm and 213 cpm and 131 cpm and 772 cpm"}, {"measurement": "HBV DNA", "setting": "hepatitis B virus; 0.25 mpk, Month 1 (follow-up), individual patients 1B-6B", "result": "4.9 pg/mL and 23.4 pg/mL and 100.6 pg/mL and 242.5 pg/mL and 2.7 pg/mL"}, {"measurement": "HBV DNA", "setting": "hepatitis B virus; [14]", "result": "492.9 pg/mL and 8.0 pg/mL and 182.6 pg/mL and 32.4 pg/mL and 9.3 pg/mL and 26.6 pg/mL"}, {"measurement": "HBV DNA Polymerase (cpm)", "setting": "hepatitis B virus; [14]", "result": "3,395 cpm and 129 cpm and 2,752 cpm and 105 cpm and 45 cpm and 260 cpm"}, {"measurement": "HBV DNA Polymerase (cpm)", "setting": "hepatitis B virus; 0.25 mpk, Week 3, individual patients 1B-3B", "result": "2,012 cpm and 63 cpm and 1,602 cpm"}, {"measurement": "HBV DNA", "setting": "hepatitis B virus; 0.25 mpk, Week 3, individual patients 1B-6B", "result": "373.2 pg/mL and 10.6 pg/mL and 68.3 pg/mL and 31.1 pg/mL and 8.3 pg/mL and 44.2 pg/mL"}, {"measurement": "HBV DNA Polymerase (cpm)", "setting": "hepatitis B virus; 0.25 mpk, Week 4, individual patients 1B-3B", "result": "834 cpm and 42 cpm and 1,076 cpm"}, {"measurement": "HBV DNA", "setting": "hepatitis B virus; 0.25 mpk, Week 4, individual patients 1B-6B", "result": "237.9 pg/mL and 7.2 pg/mL and 69.6 pg/mL and 34.0 pg/mL and 7.9 pg/mL and 41.7 pg/mL"}, {"measurement": "HBV DNA", "setting": "hepatitis B virus; 0.25 mpk, Week 5 (after 4-week treatment), individual patients 1B-6B", "result": "376.3 pg/mL and 24.1 pg/mL and 6.4 pg/mL and 89.9 pg/mL and 6.8 pg/mL"}, {"measurement": "Mean % change of HBV DNA at Week 4 of FIAU", "setting": "hepatitis B virus; 0.25 mpk, n = 6", "result": -84, "unit": "%"}, {"measurement": "reduction of the initial HBV DNA polymerase level", "setting": "hepatitis B virus; within the first few days, FIG. 20", "result": "80-90%"}, {"measurement": "CC50", "setting": "[2]", "result": "~10", "unit": "µM"}, {"measurement": "Incidence: ALT elevation, moderate (2.5-5.0x)", "setting": "[3]", "result": "2/4"}, {"measurement": "Incidence: ALT elevation, severe (>5x)", "setting": "[3]", "result": "1/4"}, {"measurement": "Incidence: AST elevation, moderate (2.5-5.0x)", "setting": "[3]", "result": "2/4"}]}]}
